Measurements reported in patent publication US20230321012A1 (priority 2021, published 2023).

Assay: clinical
Settings: for Tmax / Cmax / AUC(0-t): human, plasma, oral
Method: Clinical Trial Outline. […] All solid tumor types are eligible for the trial. […] An expansion cohort was included at the RP2D level to confirm safety and tolerability of the combination. […] In Part 2, patients were treated by giving both agents twice daily (BID dosing schedule).
Plasma samples were analyzed for AMXT 1501 concentration via a LC/MS^2 procedure (MI-0028-DB-AB; Agilux Laboratories, Worcester, Massachusetts), and the resulting concentration versus time data were used to estimate individual PK parameters using noncompartmental analysis (NCA).

With `CCCCCCCCCCCCCCCC(=O)NCCCC[C@@H](N)C(=O)NCCCNCCCCNCCCN` [AMXT 1501, D-lys(palmitoyl)-spermine] the Tmax (1800 mg, Tmax Median, Part 1 Cohort 5, 1800 mg QD, Cycle 2 Day 14, n=1) was 6 h, the Cmax (1800 mg, average Cmax, plasma AMXT 1501, Part 1 Cohort 5, 1,800 mg, repeat dosing Day 14, n=4) was 794 ng/mL and the AUC(0-t) (AUC0-6 hr Mean, Part 1 Cohort 1, 80 mg QD, Cycle 1 Day 28, +DFMO 500 mg/day) was 60.5 ng·h/mL. It also gave an AUC(0-t) (AUC0-6 hr Mean, Part 1 Cohort 2, 160 mg QD, Cycle 1 Day 28, +DFMO 500 mg/day) of 88.6 ng·h/mL, an AUC(0-t) (AUC0-6 hr Mean, Part 1 Cohort 3, 400 mg QD, Cycle 1 Day 28, +DFMO 500 mg/day) of 234 ng·h/mL and an AUC(0-t) (AUC0-6 hr Mean, Part 1 Cohort 5, 1800 mg QD, Cycle 1 Day 28, +DFMO 500 mg/day) of 1860 ng·h/mL. For the same molecule, the AUC(0-t) (AUC0-6 hr Median, Part 1 Cohort 1, 80 mg QD, Cycle 1 Day 28, +DFMO 500 mg/day) was 62.9 ng·h/mL, the AUC(0-t) (AUC0-6 hr Median, Part 1 Cohort 2, 160 mg QD, Cycle 1 Day 28, +DFMO 500 mg/day) was 84.8 ng·h/mL and the AUC(0-t) (AUC0-6 hr Median, Part 1 Cohort 3, 400 mg QD, Cycle 1 Day 28, +DFMO 500 mg/day) was 93.8 ng·h/mL. The AUC(0-t) (AUC0-6 hr Median, Part 1 Cohort 5, 1800 mg QD, Cycle 1 Day 28, +DFMO 500 mg/day) was 1430 ng·h/mL, the AUC(0-t) (AUC0-t Mean, Part 1 Cohort 1, 80 mg QD, Cycle 1 Day 28, +DFMO 500 mg/day) was 169 ng·h/mL and the AUC(0-t) (AUC0-t Mean, Part 1 Cohort 2, 160 mg QD, Cycle 1 Day 28, +DFMO 500 mg/day) was 150 ng·h/mL. The AUC(0-t) (AUC0-t Mean, Part 1 Cohort 3, 400 mg QD, Cycle 1 Day 28, +DFMO 500 mg/day) was 791 ng·h/mL, the AUC(0-t) (AUC0-t Mean, Part 1 Cohort 5, 1800 mg QD, Cycle 1 Day 28, +DFMO 500 mg/day) was 7370 ng·h/mL and the AUC(0-t) (AUC0-t Median, Part 1 Cohort 1, 80 mg QD, Cycle 1 Day 28, +DFMO 500 mg/day) was 62.9 ng·h/mL. For the same molecule, the AUC(0-t) (AUC0-t Median, Part 1 Cohort 2, 160 mg QD, Cycle 1 Day 28, +DFMO 500 mg/day) was 112 ng·h/mL, the AUC(0-t) (AUC0-t Median, Part 1 Cohort 3, 400 mg QD, Cycle 1 Day 28, +DFMO 500 mg/day) was 422 ng·h/mL and the AUC(0-t) (AUC0-t Median, Part 1 Cohort 5, 1800 mg QD, Cycle 1 Day 28, +DFMO 500 mg/day) was 6920 ng·h/mL. It also gave a Cmax (Cmax Mean, Part 1 Cohort 1, 80 mg QD, Cycle 1 Day 28, +DFMO 500 mg/day) of 16.4 ng/mL, a Cmax (Cmax Mean, Part 1 Cohort 2, 160 mg QD, Cycle 1 Day 28, +DFMO 500 mg/day) of 23.7 ng/mL and a Cmax (Cmax Mean, Part 1 Cohort 3, 400 mg QD, Cycle 1 Day 28, +DFMO 500 mg/day) of 55.8 ng/mL. The Cmax (Cmax Mean, Part 1 Cohort 5, 1800 mg QD, Cycle 1 Day 28, +DFMO 500 mg/day) was 401 ng/mL, the Cmax (Cmax Median, Part 1 Cohort 1, 80 mg QD, Cycle 1 Day 28, +DFMO 500 mg/day) was 15.1 ng/mL and the Cmax (Cmax Median, Part 1 Cohort 2, 160 mg QD, Cycle 1 Day 28, +DFMO 500 mg/day) was 23.2 ng/mL. For the same molecule, the Cmax (Cmax Median, Part 1 Cohort 3, 400 mg QD, Cycle 1 Day 28, +DFMO 500 mg/day) was 20.3 ng/mL, the Cmax (Cmax Median, Part 1 Cohort 5, 1800 mg QD, Cycle 1 Day 28, +DFMO 500 mg/day) was 321 ng/mL and the Tmax (Tmax Mean, Part 1 Cohort 1, 80 mg QD, Cycle 1 Day 28, +DFMO 500 mg/day) was 11.3 h. For the same molecule, the Tmax (Tmax Mean, Part 1 Cohort 2, 160 mg QD, Cycle 1 Day 28, +DFMO 500 mg/day) was 4.5 h, the Tmax (Tmax Mean, Part 1 Cohort 3, 400 mg QD, Cycle 1 Day 28, +DFMO 500 mg/day) was 11.3 h and the Tmax (Tmax Mean, Part 1 Cohort 5, 1800 mg QD, Cycle 1 Day 28, +DFMO 500 mg/day) was 4.67 h. For the same molecule, the Tmax (Tmax Median, Part 1 Cohort 1, 80 mg QD, Cycle 1 Day 28, +DFMO 500 mg/day) was 6 h, the Tmax (Tmax Median, Part 1 Cohort 2, 160 mg QD, Cycle 1 Day 28, +DFMO 500 mg/day) was 4 h and the Tmax (Tmax Median, Part 1 Cohort 3, 400 mg QD, Cycle 1 Day 28, +DFMO 500 mg/day) was 6 h. It also gave a Tmax (Tmax Median, Part 1 Cohort 5, 1800 mg QD, Cycle 1 Day 28, +DFMO 500 mg/day) of 4 h, a Cmax (mean Cmax, plasma AMXT 1501, n=9 patients, 1,200 mg daily split BID plus 1,000 mg daily DFMO split BID) of 493 ng/mL and a Cmax (plasma AMXT 1501 Cmax with no DLTs observed, a couple of adult patients) of over 1000 ng/mL. For the same molecule, the Cmax (plasma Cmax, AMXT 1501, melanoma patient, 1,200 mg daily split BID plus 1,000 mg daily DFMO) was 239 ng/mL, the “effect of co-administration of DFMO on PK of AMXT 1501” value (patients, DFMO co-administration) was “no obvious effect” and the “dose dependence of mean AMXT 1501 exposure” value (single or repeat PO dosing, dose levels of 160 mg and higher) was “increased in a dose-dependent manner”. For the same molecule, the “plasma AMXT 1501 level achieved” value (three patients in First-in-Human trial) was 1,000 ng/mL.
